# Measured values: US12433882B2, “Treatments for amyotrophic lateral sclerosis using dazucorilant” (Corcept Therapeutics Incorporated, priority 2022, dated 2025)
# System: effect of prednisone on eosinophils, lymphocytes, neutrophils, osteocalcin
# Assay: First In Human study Part 3, proof of pharmacological effect (prednisone challenge)
# Assay type: in vivo
# Excerpt: Linear mixed model of PD parameter estimates from part 3 of the FIE study, including terms for treatment fitted as a fixed effect, subject fitted as a random effect, and baseline concentration values fitted as a covariate. AUEC, area under the effect curve; cfb, change from baseline; CI, confidence interval; Emax, maximum change; ns, not significant.
compound,measurement,setting,value
"C[C@]12C=CC(=O)C=C1CC[C@@H]1[C@@H]2C(=O)C[C@@]2(C)[C@H]1CC[C@]2(O)C(=O)CO [Prednisone, prednisone]",EOSINOPHILS AUEC(0-24) cfb (adjusted arithmetic mean),Prednisone (25 mg) alone,−2.80 109*h/L
same,LYMPHOCYTES AUEC(0-24) cfb (adjusted arithmetic mean),Prednisone (25 mg) alone,−2.470 109*h/L
same,NEUTROPHILS AUEC(0-24) cfb (adjusted arithmetic mean),Prednisone (25 mg) alone,74.7 109*h/L
same,"effect of a single dose on eosinophils, lymphocytes, osteocalcin and neutrophils",single dose of prednisone,"decreased eosinophils, lymphocytes, and osteocalcin, and increased neutrophils"
